The source of these data is ChEMBL document CHEMBL5143626, “Marine Natural Products as Leads against SARS-CoV-2 Infection” (J Nat Prod, 2022).

For series [1], the system named is SARS-CoV-2. Briefly: Antiviral activity against SARS-CoV-2 isolate USA-WA1/2020 infected in Calu-3 cells preincubated for 24 hrs followed by viral infection and measured after 48 hrs by Hoechst 33342 staining based microscopic method. The class given is functional, organism-based. To be noted: Severe acute respiratory syndrome coronavirus 2, USA-WA1/2020, Calu-3.

The subject of series [2] is SARS-CoV-2. The experiment in a line: Antiviral activity against SARS-CoV-2 isolate USA-WA1/2020 infected in Calu-3 cells at 10 uM preincubated for 24 hrs followed by viral infection and measured after 48 hrs by Hoechst 33342 staining based microscopic method. In kind it is functional, organism-based. To be noted: Severe acute respiratory syndrome coronavirus 2, time 72.0 hrs.

For a further series, the system named is Calu-3. The experiment in a line: (§1) Cytotoxicity against human Calu-3 cells assessed as reduction in cell viability. In kind it is toxicity, cell-based. As to conditions: calu-3.
In series [3] the test system is SARS-CoV-2. Briefly: Antiviral activity against SARS-CoV-2 isolate USA-WA1/2020 infected in Calu-3 cells at 1 uM preincubated for 24 hrs followed by viral infection and measured after 48 hrs by Hoechst 33342 staining based microscopic method. To be noted: Severe acute respiratory syndrome coronavirus 2, time 72.0 hrs. The class given is functional, organism-based.

Series [4] concerns SARS-CoV-2. Briefly: Antiviral activity against SARS-CoV-2 isolate USA-WA1/2020 infected in Calu-3 cells assessed at 0.5 uM preincubated for 24 hrs followed by viral infection and measured after 48 hrs by Hoechst 33342 staining based microscopic method relative to control. As to conditions: Severe acute respiratory syndrome coronavirus 2, time 72.0 hrs. In kind it is functional, organism-based.

In series [5] the test system is SARS-CoV-2. Briefly: Antiviral activity against SARS-CoV-2 isolate USA-WA1/2020 infected in human Primary bronchial epithelial cells assessed as reduction in viral RNA replication at 2.8 uM preincubated for 1 hr followed by viral infection and measured after 48 hrs by qRT-PCR method relative to control. In kind it is functional, Severe acute respiratory syndrome coronavirus 2, Primary bronchial epithelial cell. Set-up: scale not given: the % may be the effect or the level left. As to conditions: time 49 hrs. On the technique in general: Real-time PCR tracks product formation cycle by cycle.

Series [6] can be described thus: as §1. The class given is toxicity, cell-based. As to conditions: Calu-3 cells.
The test system of series [7] is SARS-CoV-2. The experiment in a line: Antiviral activity against SARS-CoV-2 isolate USA-WA1/2020 infected in Calu-3 cells at 2.8 uM preincubated for 24 hrs followed by viral infection and measured after 48 hrs by Hoechst 33342 staining based microscopic method. The class given is functional, organism-based. To be noted: Severe acute respiratory syndrome coronavirus 2, time 72.0 hrs.

The source made the active and inactive calls. No cut-off for these calls is given here.

Take `C[C@H]1CC[C@H]2C(C)(C)CCC[C@]23Oc2ccc(O)cc2C[C@]13C` [AUREOL]: in the series with SARS-CoV-2 [1], a half-maximal response (EC50) required 4 µM. Further, the outcome in the series on SARS-CoV-2 [2] and in the series with SARS-CoV-2 [3] was Active. In the series on Calu-3, the 50% cytotoxic concentration (CC50) is more than 10 µM.

Regarding `CC(=O)C[C@]1(O)c2ccccc2-[n+]2ccc3c([nH]c4ccccc43)c21.O=C([O-])C(F)(F)F`, the outcome in the series with SARS-CoV-2 [4] and in the series on SARS-CoV-2 [7] was Active. Also, the EC50 in the series with SARS-CoV-2 [1] stood at 1.1 µM. The Activity in the series on SARS-CoV-2 [5] is given as more than 90%. Further, the CC50 in series [6] is 5 µM.

`CC1=C2Cc3cc(ccc3O)C(=O)O[C@H](C(C)(C)Br)CC[C@](C)(O)[C@H](Br)CC[C@]2(C)[C@@H](Br)CC1` registered an EC50 in the series on SARS-CoV-2 [1] of 6.9 µM. Further, the outcome in the series with SARS-CoV-2 [2] and with SARS-CoV-2 [3] was Active. For the same molecule, the CC50 in the series on Calu-3 is more than 10 µM.

Turning to `CC(C)=CCC[C@@H](C)[C@H]1CC[C@@]2(C(=O)O)C3=C(CC[C@]12C)[C@@]1(C)CC[C@H](O[C@@H]2OC[C@H](O)[C@H](O[C@@H]4OC[C@H](O)[C@H](O[C@@H]5O[C@H](CO)[C@H](O)[C@H](O)[C@H]5O)[C@H]4O)[C@H]2O[C@@H]2O[C@H](CO)[C@H](O)[C@H](O)[C@H]2O)C(C)(C)C1CC3` (stereo partly specified), in the series with SARS-CoV-2 [3], the outcome was Active.

As to `CCC(CC)COC(=O)[C@H](C)N[P@](=O)(OC[C@H]1O[C@@](C#N)(c2ccc3c(N)ncnn23)[C@H](O)[C@@H]1O)Oc1ccccc1` [REMDESIVIR], the midpoint of the response with SARS-CoV-2 [1], the EC50, lay at 0.3 µM. Further, the CC50 in the series with Calu-3 is more than 5 µM.

The EC50 is the midpoint of the concentration-response curve. By CC50 is commonly meant the concentration at which the toxic effect on the cells reaches its halfway point.
